Results on twelve molecules are retold here after ChEMBL document CHEMBL1153603, “Phenethyl pyridines with non-polar internal substituents as selective ligands for estrogen receptor beta” (Eur J Med Chem, 2009).

In assay [1] the target is T1, Estrogen receptor beta (Homo sapiens, UniProt Q92731). Kind of assay: Displacement of [3H]estradiol form human ERbeta receptor assessed as relative binding affinity by competitive radiometric binding assay relative to estradiol.
Another assay concerns the target T2, Estrogen receptor (Homo sapiens, UniProt P03372).
T2 sequence (P03372 whole entry): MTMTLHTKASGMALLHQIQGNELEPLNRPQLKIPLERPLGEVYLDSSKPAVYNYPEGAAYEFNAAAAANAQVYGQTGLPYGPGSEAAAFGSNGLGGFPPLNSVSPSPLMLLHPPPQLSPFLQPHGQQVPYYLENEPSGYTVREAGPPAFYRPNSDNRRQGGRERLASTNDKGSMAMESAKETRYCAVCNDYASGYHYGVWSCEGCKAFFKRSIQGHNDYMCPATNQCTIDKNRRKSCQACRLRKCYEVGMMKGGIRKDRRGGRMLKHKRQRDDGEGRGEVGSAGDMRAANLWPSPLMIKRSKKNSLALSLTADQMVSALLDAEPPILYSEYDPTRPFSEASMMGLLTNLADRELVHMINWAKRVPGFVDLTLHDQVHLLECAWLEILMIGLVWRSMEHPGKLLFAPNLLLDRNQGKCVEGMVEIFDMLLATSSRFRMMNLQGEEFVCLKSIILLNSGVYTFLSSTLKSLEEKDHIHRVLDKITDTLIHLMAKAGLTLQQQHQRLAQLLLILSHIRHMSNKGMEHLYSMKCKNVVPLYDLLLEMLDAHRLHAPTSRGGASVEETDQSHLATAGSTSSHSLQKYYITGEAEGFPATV
Kind of assay: Activity at human ERalpha expressed in HEC1 cells co-transfected with 2ERE-pS2-Luc assessed as relative transcriptional potency by luciferase reporter assay. Type of assay: cell-based, HEC-1.

Assay [2] deals with T1, Estrogen receptor beta. Nature of the assay: Activity at human ERbeta expressed in HEC1 cells co-transfected with 2ERE-pS2-Luc assessed as relative transcriptional potency by luciferase reporter assay. The assay is classed as cell-based, HEC-1.
In assay [3] the target is T1, Estrogen receptor beta. Kind of assay: Activity at human ERbeta expressed in HEC1 cells co-transfected with 2ERE-pS2-Luc assessed as relative transcriptional potency by luciferase reporter assay relative to estradiol. The assay is classed as cell-based. The settings on record: HEC-1.

T1 sequence (Q92731 whole entry): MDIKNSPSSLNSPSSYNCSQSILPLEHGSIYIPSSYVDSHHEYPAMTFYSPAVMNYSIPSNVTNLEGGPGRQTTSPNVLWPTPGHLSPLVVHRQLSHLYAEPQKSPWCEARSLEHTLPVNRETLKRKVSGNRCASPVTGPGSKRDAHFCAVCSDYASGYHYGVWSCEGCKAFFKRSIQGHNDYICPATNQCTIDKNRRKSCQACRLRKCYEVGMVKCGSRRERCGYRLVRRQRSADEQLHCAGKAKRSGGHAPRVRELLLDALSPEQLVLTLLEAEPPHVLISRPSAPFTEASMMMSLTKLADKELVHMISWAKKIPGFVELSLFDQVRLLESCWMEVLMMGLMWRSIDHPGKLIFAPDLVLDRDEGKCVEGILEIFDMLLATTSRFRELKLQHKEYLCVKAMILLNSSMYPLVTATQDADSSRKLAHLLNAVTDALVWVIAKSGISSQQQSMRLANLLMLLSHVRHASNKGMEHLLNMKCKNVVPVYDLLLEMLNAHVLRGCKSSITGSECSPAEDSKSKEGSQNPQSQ

Regarding `CCC(Cc1ccc(O)cn1)c1ccc(O)cc1` (stereo not given), the RBA on Estrogen receptor beta [1] turned out to be 0.15%.

Take `CC[C@H](c1ccccc1)[C@H](CC)c1ccc(O)cn1`: the RBA at Estrogen receptor beta [1] was 0.023%.

With `CCCC(Cc1ccc(O)cc1)c1ccc(O)cn1` (stereo not given), the RBA on Estrogen receptor beta [1] was determined as 0.101%.

Consider `CC[C@H](c1ccc(O)cn1)[C@@H](CC)c1ccccc1`, for which, on Estrogen receptor beta [1], the RBA worked out at 0.684%.

On to `CCC(Cc1ccc(O)cc1)c1ccc(O)cn1` (stereo not given), for which the values for the EC50 at Estrogen receptor and at Estrogen receptor beta [2] were 65 nM and 17 nM, respectively. The Activity on Estrogen receptor beta [3] is 2.94%. Besides, the RBA at Estrogen receptor beta [1] is 0.72%.

Turning to `CC[C@H](c1ccc(O)cc1)[C@H](CC)c1ccc(O)cn1` (relative stereo), the EC50 came out at 16 nM on Estrogen receptor and 26 nM at Estrogen receptor beta [2]. Further, the Activity on Estrogen receptor beta [3] is 1.9%. On Estrogen receptor beta [1], the RBA worked out at 0.67%.

`Oc1ccc(CCc2ccc(O)cn2)cc1`: at Estrogen receptor beta [1], the RBA was 0.025%.

For `CC(Cc1ccc(O)cn1)c1ccc(O)cc1` (stereo not given), the EC50 stood at 440 nM at Estrogen receptor and 170 nM on Estrogen receptor beta [2]. Also, on Estrogen receptor beta [3], the Activity turned out to be 0.29%. Further, the RBA at Estrogen receptor beta [1] amounted to 0.17%.

Consider `CC[C@H](c1ccc(O)cn1)[C@@H](C)c1ccc(O)cc1` (relative stereo), for which the EC50 on Estrogen receptor came to 0.11 nM; at Estrogen receptor beta [2], 1.1 nM. Further, the Activity at Estrogen receptor beta [3] was found to be 45%. The RBA at Estrogen receptor beta [1] was 5.3%.

`CC[C@H](c1ccc(O)cn1)[C@H](C)c1ccc(O)cc1` (relative stereo): the RBA at Estrogen receptor beta [1] came out at 0.119%.

For `CC(Cc1ccc(O)cc1)c1ccc(O)cn1` (stereo not given), the EC50 came to 330 nM at Estrogen receptor and 60 nM on Estrogen receptor beta [2]. Also, the Activity at Estrogen receptor beta [3] came out at 0.83%. Moreover, the RBA on Estrogen receptor beta [1] was determined as 0.27%.

With `CC[C@H](c1ccc(O)cn1)[C@@H](CC)c1ccc(O)cc1` (relative stereo), the EC50 is 0.11 nM on Estrogen receptor and 0.61 nM at Estrogen receptor beta [2]. For the same molecule, on Estrogen receptor beta [3], the Activity stood at 82%. Also, the RBA at Estrogen receptor beta [1] amounted to 7.5%.
